Assay results: ChEMBL document CHEMBL1201862, “PubChem BioAssay data set” (2004)
Calls of active or inactive are those of the source.

How the values were obtained:
[1] = molecular target: Ephrin type-A receptor 4 (Mus musculus, UniProt Q03137); experiment: inhibitors of EphA4 binding to KYL peptide, primary screen, biochemical, colorimetric, mouse EphA4 (AID 689); assay type: functional
[2] = molecular target: NADPH oxidase 1 (Homo sapiens, UniProt Q9Y5S8); experiment: Late-stage luminescence-based cell-based dose response assay to identify inhibitors of NADPH oxidase 1 (NOX1): Purchased analogs 2.; assay type: functional
[3] = HEp-2 cell cytotoxicity, dose response, cytotoxicity control for RSV inhibitor project, HTS (AID 2410); assay type: functional; conditions: human respiratory syncytial virus
[4] = system: Vero; experiment: host cell cytotoxicity of antiviral hits, dose response, cytotoxicity control for West Nile virus antiviral project, secondary assay (AID 1650); assay type: functional; conditions: Chlorocebus sabaeus
[5] = system: Vero; experiment: West Nile virus antiviral activity, cell-based, CPE readout (AID 1621); assay type: functional; conditions: Chlorocebus sabaeus
[6] = molecular target: T1, Microphthalmia-associated transcription factor (Homo sapiens, UniProt O75030); experiment: TRPM1 promoter luciferase signal decrease, dose response, MITF inhibitor project, cell-based, SK-MEL-5, cherry-picked, set 3 (AID 493073); assay type: functional
T1 sequence (O75030 whole entry): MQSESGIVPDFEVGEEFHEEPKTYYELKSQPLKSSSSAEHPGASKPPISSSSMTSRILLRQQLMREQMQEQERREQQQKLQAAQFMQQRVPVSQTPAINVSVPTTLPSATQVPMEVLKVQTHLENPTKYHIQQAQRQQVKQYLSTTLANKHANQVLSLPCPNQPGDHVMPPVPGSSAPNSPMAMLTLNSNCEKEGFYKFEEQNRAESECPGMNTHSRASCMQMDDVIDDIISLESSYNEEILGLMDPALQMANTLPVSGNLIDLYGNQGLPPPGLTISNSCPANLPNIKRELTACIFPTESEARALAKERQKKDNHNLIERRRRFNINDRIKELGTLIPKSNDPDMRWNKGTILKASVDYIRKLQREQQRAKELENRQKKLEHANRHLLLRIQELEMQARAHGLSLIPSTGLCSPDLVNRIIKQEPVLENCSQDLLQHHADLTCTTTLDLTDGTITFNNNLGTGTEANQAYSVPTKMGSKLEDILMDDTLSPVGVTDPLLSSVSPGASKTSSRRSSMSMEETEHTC

[7] = system: Vero; experiment: cells; assay type: functional, cell-based; conditions: Chlorocebus sabaeus
[8] = system: Vero; experiment: cells; assay type: functional; conditions: Chlorocebus sabaeus
[9] = molecular target: T2, Leucine aminopeptidase (Plasmodium falciparum 3D7, UniProt Q8IL11); experiment: P. falciparum M17LAP inhibitors, primary screen, biochemical, fluorogenic H-Leu-NHMec substrate, 1536-well (AID 1619); assay type: functional
T2 sequence (Q8IL11 whole entry): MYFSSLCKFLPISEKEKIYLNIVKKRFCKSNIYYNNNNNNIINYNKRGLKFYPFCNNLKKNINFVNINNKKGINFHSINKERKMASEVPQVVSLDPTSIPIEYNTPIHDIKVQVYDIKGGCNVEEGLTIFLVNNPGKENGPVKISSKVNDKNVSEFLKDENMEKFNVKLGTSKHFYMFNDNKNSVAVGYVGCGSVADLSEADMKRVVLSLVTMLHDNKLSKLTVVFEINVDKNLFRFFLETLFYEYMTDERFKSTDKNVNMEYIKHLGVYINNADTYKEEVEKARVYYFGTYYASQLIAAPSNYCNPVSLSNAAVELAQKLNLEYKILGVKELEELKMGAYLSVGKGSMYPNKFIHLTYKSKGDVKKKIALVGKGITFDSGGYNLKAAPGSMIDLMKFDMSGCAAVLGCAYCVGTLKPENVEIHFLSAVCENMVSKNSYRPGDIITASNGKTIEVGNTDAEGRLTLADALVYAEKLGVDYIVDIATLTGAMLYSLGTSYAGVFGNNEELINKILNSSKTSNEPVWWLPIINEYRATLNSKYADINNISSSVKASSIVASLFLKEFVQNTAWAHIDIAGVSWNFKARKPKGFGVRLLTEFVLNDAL

[10] = molecular target: Mitogen-activated protein kinase 10 (Homo sapiens, UniProt P53779); experiment: Dose response biochemical screening assay for inhibitors of c-Jun N-Terminal Kinase 3 (JNK3). [Related pubchem assays: 746 ]
[11] = molecular target: Major prion protein (Homo sapiens, UniProt P04156); assay type: functional, cell-based
[12] = cells
[13] = Luminescent dose response cell-based high throughput screening assay for inhibitors of the Janus kinase 2 mutant JAK2V617F. [Related pubchem assays: 1446 (Primary screen.), 1521 (Confirmation assay.), 1486 (Counter screen.)]; assay type: functional
[14] = NIH-3T3 fibroblast cytotoxicity, dose response, cytotoxicity control, cell-based, fluorescence, Alamar Blue, secondary assay (AID 2327); assay type: functional;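 also: NIH-3T3 mouse fibroblasts cultured with fluconazole at 8 µg/mL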
[15] = C. albicans growth with fluconazole, confirmation, fluorescence, retest (AID 2467); assay type: functional, cell-based
[16] = THP-1 cell cytotoxicity, dose response, cytotoxicity control for non-replicating M. tuberculosis project (AID 489025); assay type: functional
[17] = HepG2 cell cytotoxicity, dose response, cytotoxicity control for non-replicating M. tuberculosis project (AID 489018); assay type: functional; conditions: Mycobacterium tuberculosis
[18] = Vero E6 cell cytotoxicity, dose response, cytotoxicity control for non-replicating M. tuberculosis project, secondary assay (AID 492998); assay type: functional, VeroE6; conditions: Vero C1008
[19] = cells; assay type: functional
[20] = molecular target: Heat shock protein HSP 90-alpha (Homo sapiens, UniProt P07900); assay type: functional, organism-based
[21] = system: INS1; experiment: beta cell apoptosis inhibitors, cytokine rescue, dose response, luminescence, retest (AID 449756); assay type: functional, cell-based; conditions: Rattus norvegicus;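 also: cell death triggered by IL-1 beta plus TNF-alpha plus IFN-gamma mixture; protective hits raise ATP signal compared with cytokine alone wells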
[22] = molecular target: Serine/threonine-protein phosphatase PP1-alpha catalytic subunit (Homo sapiens, UniProt P62136); experiment: PP1 phosphatase inhibitors, dose response, biochemical, fluorescence (AID 2394)
[23] = molecular target: Serine/threonine-protein phosphatase (Homo sapiens, UniProt Q9BPW0); experiment: PP5 phosphatase inhibitors, dose response, biochemical, fluorescence (AID 2395)
[24] = molecular target: G-protein coupled receptor 35 (Homo sapiens, UniProt Q9HC97); experiment: SAR Analysis for the identification of Selective Antagonists of ERK1/2 Activity in GPR35-Overexpressing U2OS Cells. [Related pubchem assays: 2079, 2058 ]; assay type: functional, cell-based
[25] = molecular target: Tyrosine-protein phosphatase non-receptor type 12 (Homo sapiens, UniProt Q05209); experiment: SAR Selectivity Analysis of small molecule inhibitors of PEST using pCAP in a fluorescence assay. [Related pubchem assays (depositor defined):AID1779, AID1784, AID2135]; assay type: functional
[26] = molecular target: T3, Tyrosine-protein phosphatase non-receptor type 22 (Homo sapiens, UniProt Q9Y2R2); experiment: SAR LYP1 Fluorescent Assay using OMFP substrate for In Vitro dose response studies - Set 3. [Related pubchem assays (depositor defined):AID1779, AID1784, AID2140, AID2686]; assay type: functional
T3 sequence (Q9Y2R2 whole entry): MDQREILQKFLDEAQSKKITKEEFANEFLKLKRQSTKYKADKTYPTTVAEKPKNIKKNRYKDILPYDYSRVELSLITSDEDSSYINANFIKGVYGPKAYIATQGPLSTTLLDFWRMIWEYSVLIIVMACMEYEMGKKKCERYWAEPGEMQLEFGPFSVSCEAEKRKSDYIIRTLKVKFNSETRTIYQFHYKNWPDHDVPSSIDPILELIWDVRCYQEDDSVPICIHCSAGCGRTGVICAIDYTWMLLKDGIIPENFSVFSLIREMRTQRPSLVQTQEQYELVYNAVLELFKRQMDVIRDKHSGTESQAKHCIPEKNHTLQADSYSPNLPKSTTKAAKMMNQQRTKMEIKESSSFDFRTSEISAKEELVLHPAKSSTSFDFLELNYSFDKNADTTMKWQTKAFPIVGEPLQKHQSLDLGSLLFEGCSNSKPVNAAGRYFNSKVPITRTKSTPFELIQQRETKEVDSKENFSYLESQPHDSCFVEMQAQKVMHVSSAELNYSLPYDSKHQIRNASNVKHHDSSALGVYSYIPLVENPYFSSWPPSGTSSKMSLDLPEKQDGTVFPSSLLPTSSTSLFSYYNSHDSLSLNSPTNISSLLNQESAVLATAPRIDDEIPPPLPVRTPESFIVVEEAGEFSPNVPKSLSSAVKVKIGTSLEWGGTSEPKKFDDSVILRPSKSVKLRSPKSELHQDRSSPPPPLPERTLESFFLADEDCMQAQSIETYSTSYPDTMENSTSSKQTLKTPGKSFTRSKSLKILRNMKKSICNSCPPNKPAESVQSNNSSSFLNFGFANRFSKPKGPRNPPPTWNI

[27] = molecular target: T4, Tyrosine-protein phosphatase non-receptor type 7 (Homo sapiens, UniProt P35236); experiment: HePTP (PTPN7) phosphatase inhibitor potency, SAR follow-up, biochemical, set 2 (AID 449736); assay type: functional
T4 sequence (P35236 whole entry): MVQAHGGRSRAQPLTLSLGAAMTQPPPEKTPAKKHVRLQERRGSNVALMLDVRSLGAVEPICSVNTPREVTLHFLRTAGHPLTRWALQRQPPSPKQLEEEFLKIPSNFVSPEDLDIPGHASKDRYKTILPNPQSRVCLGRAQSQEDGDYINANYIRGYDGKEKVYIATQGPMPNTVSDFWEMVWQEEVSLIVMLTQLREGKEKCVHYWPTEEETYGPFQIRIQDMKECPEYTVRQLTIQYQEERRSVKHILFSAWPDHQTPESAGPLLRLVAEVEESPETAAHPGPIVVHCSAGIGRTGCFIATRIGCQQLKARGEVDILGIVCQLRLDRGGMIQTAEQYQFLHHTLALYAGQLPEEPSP

[28] = molecular target: T3, Tyrosine-protein phosphatase non-receptor type 22; experiment: LYP (PTPN22) phosphatase inhibitor potency, SAR follow-up, biochemical, pCAP fluorogenic substrate, fluorescence, set 3 (AID 449727); assay type: functional
[29] = molecular target: G-protein coupled receptor 55 (Homo sapiens, UniProt Q9Y2T6); experiment: GPR55 antagonists, SAR follow-up, counter-screen for GPR35 antagonist project, imaging, image-based (AID 2397); assay type: functional

Cc1cc(C=C2C(=O)N(C)C(=S)N(C)C2=O)c(C)n1C1CCCCC1
IC50 [1]: 5.14 µM (active)

Fc1nc(F)c(F)c(N/N=C/c2ccc(Br)cc2)c1F
IC50 [2]: > 17 µM (not active)

NCCCNc1nc(N)c([N+](=O)[O-])c(NC2CCCCC2)n1
CC50 [3]: 18.2 µM (active)
CC50 [4]: 13.4 µM (active)
IC50 [5]: 8.89 µM (active)
AC50 [6]: 6.36 µM (active)
IC50 [7]: 6 µM (active)
CC50 [8]: 11.6 µM (active)

N#Cc1c(O)nc(SCC(=O)Nc2cccc(Cl)c2)nc1-c1ccco1
IC50 [9]: 2.5 µM (active)
IC50 [10]: 29.7 µM (not active)
IC50 [11]: 1.69 µM (active)
IC50 [12]: > 138 µM (inactive)

COc1cccc(F)c1C(C[N+](=O)[O-])c1c(N)n(C)c(=O)n(C)c1=O (stereo not given)
IC50 [13]: 1.06 µM (active)
EC50 [14]: 5.27 µM (active)
EC50 [15]: 0.779 µM (active)
CC50 [16]: 7.28 µM (active)
CC50 [17]: 16.2 µM (active)
CC50 [18]: 4.73 µM (active)
IC50 [19]: 5.94 µM (active)
AC50 [20]: 3.91 µM (active)
AC50 [21]: 7.85 µM (active)
CC50 [8]: 8.24 µM (active)

COc1ccc(Cn2c(N)c(C(=O)NCc3ccco3)c3nc4ccccc4nc32)cc1OC
IC50 [22]: > 67 µM (not active)
IC50 [23]: 46.5 µM (not active)

CCOC(=O)c1ccc(NC(=O)CCCN2C(=O)/C(=C/c3ccc(C)cc3)SC2=S)cc1
IC50 [24]: 21.4 µM (not active)
IC50 [25]: 96.4 µM (active)
IC50 [26]: > 100 µM (inactive)
IC50 [27]: > 100 µM (inactive)
IC50 [28]: > 100 µM (inactive)
IC50 [29]: > 32 µM (inactive)
